These are literature values, as cited in patent US11160861B2, “Adjuvanting systems and water-free vaccine compositions comprising a polyI:C polynucleotide adjuvant and a lipid-based adjuvant” (priority 2015, dated 2021).

One data set concerns murine DCs. The following applies: in vitro stimulation of murine DCs, small amounts of adjuvant relative to other TLR agonists (Welters 2007).
For data set [1] the following is noted: variety of animal models and Phase I clinical trial in humans (Moyle 2008; Wiedemann 1991).

As for `CCCCCCCCCCCCCCCC(=O)N[C@@H](CSC[C@@H](COC(=O)CCCCCCCCCCCCCCC)OC(=O)CCCCCCCCCCCCCCC)C(=O)O` [Pam3Cys, tripalmitoyl-S-glyceryl-cysteine], the “Production of pro-inflammatory cytokines IL-12p40, IL-6 and TNFα” value with murine DCs was “high levels”. Also, in data set [1], the Side effects entry is “no reported side effects”.
